Structures are written as SMILES. ± gives the expanded uncertainty stated by the source.

This series can be described thus: activity coefficient (dimensionless); of the first substance listed, at infinite dilution; xn = mol fraction of the nth substance listed. To be noted: Liquid, Chromatography, x1 = 0.

For `CO` [methanol] + CCCCCCCCCCCCCC[P+](CCCCCC)(CCCCCC)CCCCCC.O=S(=O)([N-]S(=O)(=O)C(F)(F)F)C(F)(F)F, the activity coefficient reads like this: (302.45 K) 1.29 ± 0.08; (322.35 K) 0.98 ± 0.06; (342.45 K) 0.86 ± 0.06.

As for `CCc1ccccc1` [ethylbenzene] + CCCCCCCCCCCCCC[P+](CCCCCC)(CCCCCC)CCCCCC.O=S(=O)([N-]S(=O)(=O)C(F)(F)F)C(F)(F)F, the activity coefficient by setting is: (302.45 K) 0.54 ± 0.04; (322.35 K) 0.57 ± 0.04; (342.45 K) 0.59 ± 0.04.

As to `CC#N` [acetonitrile] + CCCCCCCCCCCCCC[P+](CCCCCC)(CCCCCC)CCCCCC.O=S(=O)([N-]S(=O)(=O)C(F)(F)F)C(F)(F)F, the activity coefficient reads like this: (302.45 K) 0.56 ± 0.04; (322.35 K) 0.5 ± 0.04; (342.45 K) 0.46 ± 0.04.

As to `CCCC=O` [butanal] + CCCCCCCCCCCCCC[P+](CCCCCC)(CCCCCC)CCCCCC.O=S(=O)([N-]S(=O)(=O)C(F)(F)F)C(F)(F)F, the activity coefficient is, setting by setting: (302.45 K) 0.38 ± 0.03; (322.35 K) 0.36 ± 0.03; (342.45 K) 0.35 ± 0.03.

Source of the values: the NIST ThermoML archive (doi:10.1021/je800754w).
